Data taken from patent US20170348258A1, “3-Amino Benzamide Derivative Serving As B-Lactam Auxiliary Antibiotic, Preparation Method and Use Thereof” (THE HONG KONG POLYTECHNIC UNIVERSITY, priority 2014, published 2017).
≈ marks a conversion by molar mass, not a printed value.

Tests used:
S. aureus FtsZ [1] = molecular target: T1, S. aureus FtsZ (Staphylococcus aureus, UniProt P0A031); assay: Light scattering assay (FtsZ polymerization); type: biochemical; conditions: S. aureus FtsZ 12 μM, 1 mM GTP, serial dilutions of compound
T1 construct: inferred from capture on a nickel chelating column and imidazole elution; made in house; host or cells: E. coli BL21
T1 sequence (P0A031 1-390): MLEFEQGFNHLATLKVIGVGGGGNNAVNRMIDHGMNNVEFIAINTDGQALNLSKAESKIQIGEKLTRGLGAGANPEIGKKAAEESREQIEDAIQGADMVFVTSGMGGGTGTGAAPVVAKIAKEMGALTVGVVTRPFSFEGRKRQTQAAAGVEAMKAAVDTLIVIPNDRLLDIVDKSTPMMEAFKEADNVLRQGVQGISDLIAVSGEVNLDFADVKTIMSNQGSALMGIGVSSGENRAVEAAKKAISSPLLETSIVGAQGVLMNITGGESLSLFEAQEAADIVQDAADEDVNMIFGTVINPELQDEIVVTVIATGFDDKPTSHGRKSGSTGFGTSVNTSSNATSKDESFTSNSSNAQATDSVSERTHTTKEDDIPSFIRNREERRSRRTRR
Description: Light scattering assay was used to determine the degree of FtsZ polymerization by measuring the 90° light scattering signal using a fluorescence spectrometer (Perkin-Elmer, USA). The excitation and emission wavelengths were set to 600 nm with a slit width of 5 nm. S. aureus FtsZ (12 μM) was incubated with serial dilutions of the compounds in 50 mM MOPS buffer (pH 6.8) at 25° C. for 10 minutes. The control contained 1% DMSO only. KCl (final concentration: 50 mM) and MgCl2 (final concentration: 10 mM) were then added to the mixture. The mixture was incubated at 37° C. for 8 minutes in order to establish a baseline. A final concentration of 1 mM GTP was added and the light scattering signal was measured for 1,500 seconds. The relative light scattering signals in experimental set-up were calculated with reference to the light scattering signal in control experiment. Three independent experiments were carried out for each compound concentration.

E. coli = assay: Antibacterial susceptibility test (MIC, microbroth dilution); type: cell-based; conditions: Escherichia coli; 18 hours at 37° C., >90% inhibition of bacterial growth
Description: (§1) The bacterial strains used in microbial susceptibility test were E. coli, S. aureus 29213 and B. subtilis 168. E. coli and S. aureus 29213 were obtained from the laboratory of the Hong Kong Polytechnic University. B. subtilis 168 was purchased from American Type Culture Collection (USA). The mammalian cell lines L929 (mouse peritoneal fibroblast), LCC6 (a wild type breast cancer cell line), LCC6MDR (P-gp over-expressed breast cancer cell line) were stocks in our department. Nutrient Agar, tryptone and yeast extract were purchased from Oxoid Limited (Nepean, Ontario, Canada). Luria-Bertani (LB) medium was prepared from 2 g tryptone, 1 g yeast extract, and 2 g sodium chloride in 200 ml deionized water and sterilized. Müller-Hinton broth (MHB), cation-adjusted Müller-Hinton broth (MHB) and trypticase soy broth (TSB) for microbial susceptibility test were purchased from Becton, Dickinson and Company (New Jersey, USA). A microplate reader (Bio-Rad Laboratories Model 680) is used to measure bacterial growth and cytotoxicity. An Olympus FSX100® Bio Imaging Navigator Microscope was used to observe the morphology of B. subtilis cell.
(§2) The minimum inhibitory concentration (MIC) of each compound was determined using microbroth dilution method according to the National Committee for Clinical Laboratory Standards (CLSI) guidelines. All Compounds were dissolved in DMSO and diluted in a serial two-fold manner. A single colony of bacterial strain on a TSB agar plate was inoculated in 5 mL MHB or CA-MHB. The bacterial cells were incubated at 37° C. until the optimal density (OD600) of the growing cells reached 1.0. The cells were then diluted to a final concentration of approximately 5×10^5 CFU/mL in a serial two-fold manner in a 96-well microtiter plate (Iwaki, Japan). Compound 3 and PC190723 were used as positive controls. […] Table 1 below summarizes the MIC of all synthesized compounds.

B. subtilis 168 = assay: as above; type: cell-based; conditions: Bacillus subtilis, 168; 18 hours at 37° C., >90% inhibition of bacterial growth; read-out: MIC, BS 168
Description: as §1, §2

MRSA strain USA300#2960 = assay: Fractional Inhibitory Concentration Index (FICI) determination; type: cell-based, S. aureus
Description: The bacterial strains used in this study were clinically isolated MRSA strains USA300#757 and #2960 which were obtained from our laboratory. Determination of the Fractional Inhibitory Concentration Index (FICI) was adopted by the Müller-Hinton broth (MHB) dilution method as previously described. Twelve serial two-fold dilutions of PC190723, F332 and F361 were prepared in the 96-well microplate with concentration ranging from 512 to 0.25 μg/mL. A series of two-fold dilutions of ampicillin, cloxacillin and cefuroxime were also prepared following the same procedure. Lastly, the compounds and the β-lactams were mixed at a 1:1 ratio and subjected to two-fold dilution as described previously. Each microplate well contained 100 μL of MHB supplemented with compounds alone, β-lactams alone or the mixture of compounds and β-lactams. Overnight cultures of S. aureus in the Müller-Hinton broth was diluted to OD595 of 0.08-0.1 in saline and added in each of the microplate well. The plates were incubated at 37° C. for 20 h. All tests were performed in duplicate and the inhibition of bacterial growth was determined by visualization. The FICI of compounds and β-lactams were calculated as followed: FICI=(MIC of combination of compound and β-lactam/MIC of compound alone)+(MIC of combination of compound and β-lactam/MIC of β-lactam alone).

S. aureus FtsZ [2] = molecular target: T1, S. aureus FtsZ; assay: GTPase activity assay; type: biochemical; conditions: FtsZ 7.5 μM, GTP 500 μM, 37° C. 30 minutes
Description: The GTPase activity of S. aureus FtsZ was determined in a 96-well microplate using a CytoPhos™ phosphate assay Biochem Kit™ (Cytoskeleton, USA) which measured the concentration of inorganic phosphate released during the hydrolysis of GTP. Recombinant S. aureus FtsZ (7.5 μM) was incubated with serial dilutions of the compounds in 50 mM MOPS buffer (pH 6.5) at 25° C. for 10 minutes. The control contained 1% DMSO only. KCl (final concentration: 200 mM) and MgCl2 (final concentration: 5 mM) were then added to the mixture. The mixture was incubated with GTP (final concentration: 500 μM) at 37° C. for 30 minutes. The insoluble polymer was removed by centrifugation at 13,500 rpm at room temperature for 1 minute. 80 μL supernatant was transferred to a well of a 96-well microplate and incubated with 120 μL of Cytophos reagent at room temperature for 10 minutes. The inorganic phosphate in the mixture was determined by measuring the absorbance at 650 nm in a 96-well microplate reader (BioRad 680). The results from the samples were reported with reference to the control. Three independent experiments were carried out for each compound concentration.

With `CCCCCCCCCNc1ccc(F)c(C(N)=O)c1F` [Compound F332, 2,6-difluoro-3-(nonylamino)benzamide] the “effect on light scattering signal of FtsZ assembly (polymerization)” value (S. aureus FtsZ [1]) was “inhibit the light scattering of FtsZ assembly”, the MIC (E. coli) was over 100 µM and the MIC (B. subtilis 168) was 3.13 µM (≈ 0.934 µg/mL). For the same molecule, the “FICI with Ampicillin” value (MRSA strain USA300#2960) was 0.28, the “FICI with Cefotaxime” value (MRSA strain USA300#2960) was 0.38 and the “FICI with Cefuroxime” value (MRSA strain USA300#2960) was 0.38. For the same molecule, the “FICI with Cloxacillin” value (MRSA strain USA300#2960) was 1.02, the “FICI with Meropenem” value (MRSA strain USA300#2960) was 0.28 and the “effect on GTPase activity of S. aureus FtsZ” value (S. aureus FtsZ [2]) was “no significant change of the GTPase activity”.
For `CCCCCCCCCN(C)c1ccc(F)c(C(N)=O)c1F` [Compound F361, 2,6-difluoro-3-(methyl(nonyl)amino)benzamide], the “effect on light scattering signal of FtsZ assembly (polymerization)” value (S. aureus FtsZ [1]) was “inhibit the light scattering of FtsZ assembly”, the MIC (E. coli) was over 100 µM and the MIC (B. subtilis 168) was 1.57 µM (≈ 0.49 µg/mL). For the same molecule, the “FICI with Cefotaxime” value (MRSA strain USA300#2960) was 1.00, the “FICI with Meropenem” value (MRSA strain USA300#2960) was 0.28 and the “effect on GTPase activity of S. aureus FtsZ” value (S. aureus FtsZ [2]) was “no significant change of the GTPase activity”.
